Reference: ChEMBL document CHEMBL1641458, “A journey from benzanilides to dithiobenzanilides: Synthesis of selective spasmolytic compounds” (Bioorg Med Chem, 2011)
pIC50: −log10 of the molar value.

Assays:
Ileum = test: tissue or blood; format: functional, tissue-based; details: Cavia porcellus, 0.75 h
Aorta = test: tissue or blood; format: functional, tissue-based; details: Cavia porcellus, 0.75 h
[1] = Antispasmodic activity in guinea pig arteria pulmonalis ring assessed as inhibition of 60 mM KCl-induced contraction after 45 mins; format: functional, Cavia porcellus

Measured: pIC50

COc1cc(C(=S)Nc2cccc(NC(=S)c3cc(OC)c(OC)c(OC)c3)c2)cc(OC)c1OC
< 4.00: all assays above
